What follows are molecules tested against hOGG1 (Homo sapiens, UniProt O15527) (assay: Biochemical fluorescence assay to measure enzymatic activity of hOGG1 (OGG1/APEX IC50)). Conditions: 1 nM OGG1+2 nM APEX+6 nM dsDNA (8-oxo-dG substrate); pH 7.5; RT 40 min; read-out: OGG1/APEX IC50.
Design: Protein His-hOGG1 (12-323) was prepared; His (N); host or cells: E. coli
Summary of the method: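 His-hOGG1 (12-323, E. coli) at 1 nM with 2 nM hAPE1/APEX1, preincubated 20 min RT with compound. Then 6 nM 8-oxo-dG dsDNA substrate added, 40 min at RT in Tris pH 7.5, 100 mM KCl. TAMRA fluorescence (Ex520/Em600) converted to % inhibition vs controls; IC50 from 3-parameter fit of 10-point curve.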

Chain of hOGG1 (O15527 12-323): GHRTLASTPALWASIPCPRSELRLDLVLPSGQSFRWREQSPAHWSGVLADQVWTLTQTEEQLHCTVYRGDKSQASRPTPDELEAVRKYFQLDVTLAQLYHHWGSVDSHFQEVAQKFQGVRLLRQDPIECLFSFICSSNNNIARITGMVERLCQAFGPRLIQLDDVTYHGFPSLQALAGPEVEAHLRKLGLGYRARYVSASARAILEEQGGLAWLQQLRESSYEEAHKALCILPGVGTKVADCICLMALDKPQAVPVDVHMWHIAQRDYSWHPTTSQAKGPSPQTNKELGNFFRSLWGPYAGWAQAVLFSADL

First: COc1cc(NC(=O)[C@H]2CC[C@@H](N3Cc4c(C)cccc4C3=O)CC2)ccc1C [Example 153, (1s,4s)-N-(3-Methoxy-4-methylphenyl)-4-(4-methyl-1-oxoisoindolin-2-yl)cyclohexanecarboxamide]
Second: COc1cc(NC(=O)[C@H]2CC[C@@H](N3Cc4c(F)cccc4C3=O)CC2)ccc1C [Example 164, (1s,4s)-4-(4-Fluoro-1-oxoisoindolin-2-yl)-N-(3-methoxy-4-methylphenyl)cyclohexanecarboxamide]
The IC50 of the first is lower: 100 to 1000 nM for the first, 1000 to 10000 nM for the second.

Compared with `COc1ccc(NC(=O)[C@H]2CC[C@@H](N3Cc4c(C)cccc4NC3=O)CC2)cc1C` [Example 87, (1s,4s)-N-(4-methoxy-3-methylphenyl)-4-(5-methyl-2-oxo-1,2-dihydroquinazolin-3(4H)-yl)cyclohexanecarboxamide], `COc1cc(NC(=O)[C@H]2CC[C@@H](N3Cc4c(F)cccc4NC3=O)CC2)ccc1C` [Example 75, (1s,4s)-4-(5-fluoro-2-oxo-1,2-dihydroquinazolin-3(4H)-yl)-N-(3-methoxy-4-methylphenyl)cyclohexanecarboxamide] is higher in IC50: less than 100 nM for the first, 100 to 1000 nM for the second.

`Cc1cccc2c1CN([C@H]1CC[C@@H](C(=O)Nc3ccc(O)cc3)CC1)C2=O` [Example 229, (1s,4s)-N-(4-Hydroxyphenyl)-4-(4-methyl-1-oxoisoindolin-2-yl)cyclohexanecarboxamide] and `Cc1ccc(NC(=O)[C@H]2CC[C@@H](N3Cc4c(C)cccc4C3=O)CC2)cc1O` [Example 222, (1s,4s)-N-(3-Hydroxy-4-methylphenyl)-4-(4-methyl-1-oxoisoindolin-2-yl)cyclohexanecarboxamide] fall in the same range of IC50: 1000 to 10000 nM for the first, 1000 to 10000 nM for the second.

Compared with `CNCCNc1cc(Br)c2c(c1)C(=O)N([C@H]1CC[C@@H](C(=O)Nc3ccc(C)c(OC)c3)CC1)C2` [Example 175, (1s,4s)-4-(4-Bromo-6-(2-(methylamino)ethylamino)-1-oxoisoindolin-2-yl)-N-(3-methoxy-4-methylphenyl)cyclohexanecarboxamide], `COc1cc(NC(=O)[C@H]2CC[C@@H](N3Cc4c(Br)cc(NC(=O)CN5CCC5)cc4C3=O)CC2)ccc1C` [Example 200, (1s,4s)-4-(6-(2-(Azetidin-1-yl)acetamido)-4-bromo-1-oxoisoindolin-2-yl)-N-(3-methoxy-4-methylphenyl)cyclohexanecarboxamide] is higher in IC50: less than 100 nM for the first, 100 to 1000 nM for the second. The first is the more potent here.

First: Cc1cc(NCCN(C)C)cc2c1CN([C@H]1CC[C@@H](C(=O)Nc3ccn(CCO)n3)CC1)C2=O [Example 130, (1s,4s)-4-(6-((2-(Dimethylamino)ethyl)amino)-4-methyl-1-oxoisoindolin-2-yl)-N-(1-(2-hydroxyethyl)-1H-pyrazol-3-yl)cyclohexane-1-carboxamide]
Second: COc1ccc(NC(=O)[C@H]2CC[C@@H](N3Cc4c(C)cc(NCCN(C)C)cc4NC3=O)CC2)cc1Cl [Example 100, (1s,4s)-N-(3-chloro-4-methoxyphenyl)-4-(7-(2-(dimethylamino)ethylamino)-5-methyl-2-oxo-1,2-dihydroquinazolin-3(4H)-yl)cyclohexanecarboxamide]
The IC50 of the first is higher: 1000 to 10000 nM for the first, less than 100 nM for the second. The second is the more potent here.

`CCc1ccc(NC(=O)[C@H]2CC[C@@H](N3Cc4c(C)cccc4C3=O)CC2)cc1C` [Example 127, (1s,4s)-N-(4-Ethyl-3-methylphenyl)-4-(4-methyl-1-oxoisoindolin-2-yl)cyclohexane-1-carboxamide] and `Cc1ccc(NC(=O)[C@H]2CC[C@@H](N3Cc4c(C)cccc4C3=O)CC2)cc1CO` [Example 126, (1s,4s)-N-(3-(Hydroxymethyl)-4-methylphenyl)-4-(4-methyl-1-oxoisoindolin-2-yl)cyclohexane-1-carboxamide] fall in the same range of IC50: 1000 to 10000 nM for the first, 1000 to 10000 nM for the second.

`COc1cc(NC(=O)[C@H]2CC[C@@H](N3Cc4c(C)ccc(CO)c4NC3=O)CC2)ccc1C` [Example 54, (1s,4s)-4-(8-(Hydroxymethyl)-5-methyl-2-oxo-1,2-dihydroquinazolin-3(4H)-yl)-N-(3-methoxy-4-methylphenyl)cyclohexanecarboxamide] and `COc1cc(NC(=O)[C@H]2CC[C@@H](N3Cc4c(C)ccc(OCCN(C)C)c4NC3=O)CC2)ccc1C` [Example 21, (1s,4s)-4-(8-(2-(Dimethylamino)ethoxy)-5-methyl-2-oxo-1,2-dihydroquinazolin-3(4H)-yl)-N-(3-methoxy-4-methylphenyl)cyclohexanecarboxamide] cannot be ordered by IC50: less than 100 nM for the first, less than 100 nM for the second.

First: Cc1cccc2c1CN([C@H]1CC[C@@H](C(=O)Nc3ccc4oncc4c3)CC1)C(=O)N2 [Example 114, (1s,4s)-N-(benzo[d]isoxazol-5-yl)-4-(5-methyl-2-oxo-1,2-dihydroquinazolin-3(4H)-yl)cyclohexanecarboxamide]
Second: COc1cc(NC(=O)[C@H]2CC[C@@H](N3Cc4c(C)cncc4NC3=O)CC2)ccc1C [Example 37, (1s,4s)-N-(3-Methoxy-4-methylphenyl)-4-(5-methyl-2-oxo-1,2-dihydropyrido[3,4-d]pyrimidin-3(4H)-yl)cyclohexanecarboxamide]
The IC50 of the first is higher: 1000 to 10000 nM for the first, less than 100 nM for the second.

First: COc1cc(NC(=O)[C@H]2CC[C@@H](N3Cc4c(C)cc(OCC5(O)CNC5)cc4C3=O)CC2)ccc1C [Example 138, (1s,4s)-4-(6-((3-Hydroxyazetidin-3-yl)methoxy)-4-methyl-1-oxoisoindolin-2-yl)-N-(3-methoxy-4-methylphenyl)cyclohexanecarboxamide]
Second: CNC(=O)c1cc(C)c2c(c1)C(=O)N([C@H]1CC[C@@H](C(=O)Nc3ccc(C)c(OC)c3)CC1)C2 [Example 212, 2-((1s,4s)-4-(3-Methoxy-4-methylphenylcarbamoyl)cyclohexyl)-N,7-dimethyl-3-oxoisoindoline-5-carboxamide]
The IC50 of the first is lower: less than 100 nM for the first, 100 to 1000 nM for the second. The first is the more potent here.

`COc1cc(NC(=O)[C@H]2CC[C@@H](N3Cc4c(C)cc(C#N)cc4NC3=O)CC2)ccc1C` [Example 31, (1s,4s)-4-(7-Cyano-5-methyl-2-oxo-1,2-dihydroquinazolin-3(4H)-yl)-N-(3-methoxy-4-methylphenyl)cyclohexanecarboxamide] and `COc1cc(NC(=O)[C@H]2CC[C@@H](N3Cc4c(C)cnc(C#N)c4NC3=O)CC2)ccc1C` [Example 22, (1s,4s)-4-(8-Cyano-5-methyl-2-oxo-1,2-dihydropyrido[3,4-d]pyrimidin-3(4H)-yl)-N-(3-methoxy-4-methylphenyl)cyclohexanecarboxamide] cannot be ordered by IC50: less than 100 nM for the first, less than 100 nM for the second.

Compared with `COc1cc(NC(=O)[C@H]2CC[C@@H](N3Cc4c(C)cc(CNS(C)(=O)=O)cc4NC3=O)CC2)ccc1C` [Example 26, (1s,4s)-N-(3-Methoxy-4-methylphenyl)-4-(5-methyl-7-(methylsulfonamidomethyl)-2-oxo-1,2-dihydroquinazolin-3(4H)-yl)cyclohexanecarboxamide], `COc1cc(NC(=O)[C@@H]2CC[C@@H](N3Cc4c(C)cc(Br)cc4NC3=O)C2)ccc1C` [Example 36, (1R,3R)-3-(7-Bromo-5-methyl-2-oxo-1,2-dihydroquinazolin-3(4H)-yl)-N-(3-methoxy-4-methylphenyl)cyclopentanecarboxamide] is higher in IC50: less than 100 nM for the first, 1000 to 10000 nM for the second.

First: COc1cc(NC(=O)[C@H]2[C@@H]3C[C@H](N4Cc5c(Br)cccc5C4=O)C[C@@H]32)ccc1C (single isomer, unassigned) [Example 268]
Second: COc1cc(NC(=O)C(C)N2CC(N3Cc4c(Br)cccc4C3=O)C2)ccc1C (stereo not shown) [Example 188, 2-(3-(4-Bromo-1-oxoisoindolin-2-yl)azetidin-1-yl)-N-(3-methoxy-4-methylphenyl)propanamide]
The IC50 of the first is lower: 100 to 1000 nM for the first, greater than 10000 nM for the second. The first is the more potent here.

First: COc1cc(NC(=O)[C@H]2CC[C@@H](N3Cc4c(CN)cccc4C3=O)CC2)ccc1C [Example 134, (1s,4s)-4-(4-(aminomethyl)-1-oxoisoindolin-2-yl)-N-(3-methoxy-4-methylphenyl)cyclohexane-1-carboxamide]
Second: COc1cc(NC(=O)[C@H]2CC[C@@H](N3Cc4c(ccnc4Br)C3=O)CC2)ccc1C [Example 176, (1s,4s)-4-(4-Bromo-1-oxo-1H-pyrrolo[3,4-c]pyridin-2(3H)-yl)-N-(3-methoxy-4-methylphenyl)cyclohexanecarboxamide]
The IC50 of the first is higher: greater than 10000 nM for the first, 100 to 1000 nM for the second. The second is the more potent here.

First: COc1cc(NC(=O)N2CCC(N3Cc4ccccc4NC3=O)CC2)ccc1C [Example 64, N-(3-methoxy-4-methylphenyl)-4-(2-oxo-1,2-dihydroquinazolin-3(4H)-yl)piperidine-1-carboxamide]
Second: COc1cc(NC(=O)[C@H]2CC[C@@H](N3Cc4c(ccc(OCCN5CCOCC5)c4C)NC3=O)CC2)ccc1C [Example 50, (1s,4s)-N-(3-Methoxy-4-methylphenyl)-4-(5-methyl-6-(2-morpholinoethoxy)-2-oxo-1,2-dihydroquinazolin-3(4H)-yl)cyclohexanecarboxamide]
The IC50 of the first is lower: 100 to 1000 nM for the first, 1000 to 10000 nM for the second.

`COc1cc(NC(=O)[C@H]2CC[C@@H](N3Cc4c(Br)cc(NC(=O)Cc5c[nH]cn5)cc4C3=O)CC2)ccc1C` [Example 201, (1s,4s)-4-(6-(2-(1H-Imidazol-4-yl)acetamido)-4-bromo-1-oxoisoindolin-2-yl)-N-(3-methoxy-4-methylphenyl)cyclohexanecarboxamide] and `COc1cc(NC(=O)[C@H]2CC[C@@H](n3[nH]c4c(Br)cccc4c3=O)CC2)ccc1C` (single isomer, unassigned) [Example 160, (1s,4s)-4-(7-Bromo-3-oxo-1H-indazol-2(3H)-yl)-N-(3-methoxy-4-methylphenyl)cyclohexanecarboxamide] fall in the same range of IC50: 100 to 1000 nM for the first, 100 to 1000 nM for the second.

In the case of `O=C1c2cccc(Br)c2CN1[C@H]1CC[C@@H](C(=O)Nc2ccc3c(c2)OCCO3)CC1` [Example 191, (1s,4s)-4-(4-Bromo-1-oxoisoindolin-2-yl)-N-(2,3-dihydrobenzo[b][1,4]dioxin-6-yl)cyclohexanecarboxamide], the IC50 is reported as 1000 to 10000 nM.

From patent publication US20260317356A1, “SMALL MOLECULE MODULATORS OF OGG1” (AZKARRA THERAPEUTICS, INC., priority 2023, published 2026)
